{"source": "paper PMC9607081", "about": "(Membranes, 2022)", "key": {"[1]": {"target": "T1, human GlyR α1 subunit P146A (Homo sapiens, UniProt P23415, P174A)", "T1 construct": "expressed in transfected cells; host or cells: Xenopus laevis oocytes injected with receptor mRNA", "T1 sequence (P23415 29-457 P174A)": "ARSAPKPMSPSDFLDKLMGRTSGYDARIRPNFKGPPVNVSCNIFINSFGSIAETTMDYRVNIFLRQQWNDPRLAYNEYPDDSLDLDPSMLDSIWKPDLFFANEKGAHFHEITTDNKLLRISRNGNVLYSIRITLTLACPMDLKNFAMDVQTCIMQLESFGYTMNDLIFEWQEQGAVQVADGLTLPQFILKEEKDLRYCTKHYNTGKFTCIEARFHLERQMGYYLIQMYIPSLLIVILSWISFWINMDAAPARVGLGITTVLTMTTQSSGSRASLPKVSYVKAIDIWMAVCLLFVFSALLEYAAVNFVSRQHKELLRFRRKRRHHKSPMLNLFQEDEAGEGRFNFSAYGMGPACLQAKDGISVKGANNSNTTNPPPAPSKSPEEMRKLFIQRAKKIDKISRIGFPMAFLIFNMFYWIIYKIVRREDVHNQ", "test": "Two-electrode voltage clamp of Xenopus oocytes expressing P146A GlyR", "format": "cell-based", "details": "for nH (Hill coefficient): Table 1, n = 5; for EC50: Table 1, −60 mV", "method": "(§1) Injection volumes were 50–100 nL per cell.\n(§2) All experiments were performed at 22–25 °C. […] The holding potential was −60 mV unless otherwise specified."}, "[2]": {"tested_on": "human GlyR α1 subunit P30 (α1β1L) substituted with 3MeP", "details": "Table 2, P30 3MeP, n = 4", "method": "(§3) The cDNA for the human GlyR α1 subunit was in pGEMHE (ThermoFischer Scientific, Bishops Stortford, UK). Site-directed mutagenesis was performed using QuikChange (Agilent Technologies, Milton Keynes, UK) to generate the appropriate codon. For non-canonical amino acid mutants and conventional mutants generated by nonsense suppression, the site of interest was mutated to the TAG stop codon. Receptor mRNA was then prepared by in vitro runoff transcription using the Ambion T7 mMessage mMachine kit (ThermoFischer Scientific, Bishops Stortford, UK). Noncanonical amino acids were ligated to tRNA as previously described.\n(§4) Stage V-VI oocytes of Xenopus laevis were harvested and injected with RNAs as described previously. For nonsense suppression experiments, each cell was injected with 50–100 ng each of receptor mRNA and tRNA charged with the appropriate Pro analogue ~48 h before recording. For wild type and conventional mutants, each cell received a single injection of 10–25 ng of receptor mRNA ~24 h before recording. Injection volumes were 50–100 nL per cell.\n(§5) As a negative control for suppression experiments at each site, unligated tRNA was co-injected with mRNA in the same manner as charged tRNA. […] Pro recovery (injecting tRNA charged with Pro to regenerate a wild type channel via nonsense suppression) was used alongside Pro analogues as a positive control.\n(§6) Two-electrode voltage clamping of Xenopus oocytes was performed using standard electrophysiological procedures as previously, using an OpusXpress system (Axon Instruments, Inc., Union City, CA, USA). All experiments were performed at 22–25 °C. […] The holding potential was −60 mV unless otherwise specified. […] Data were analysed using Prism (GraphPad Software Inc., San Diego, CA, USA), fitting concentration-response data to the four-parameter logistic equation. Statistical analysis was performed using ANOVA with a Dunnett’s multiple comparisons post test."}, "[3]": {"tested_on": "human GlyR α1 subunit P146 (CysL) substituted with TFP", "method": "as §3, §4, §5, §6"}, "[4]": {"tested_on": "human GlyR α1 subunit P96 (loopA) substituted with TFP", "method": "as §3, §4, §5, §6"}, "[5]": {"tested_on": "human GlyR α1 subunit P30 (α1β1L) substituted with TFP", "method": "as §3, §4, §5, §6"}, "[6]": {"tested_on": "human GlyR α1 subunit P30 (α1β1L) substituted with 2MeP", "details": "Table 2, P30 2MeP, n = 5", "method": "as §3, §4, §5, §6"}, "[7]": {"target": "T2, human GlyR α1 subunit P230A (Homo sapiens, UniProt P23415, P258A)", "T2 construct": "expressed in transfected cells; host or cells: Xenopus laevis oocytes injected with receptor mRNA", "T2 sequence (P23415 29-457 P258A)": "T1 sequence (P23415 29-457 P174A) with A146P, P230A", "test": "Two-electrode voltage clamp of Xenopus oocytes expressing P230A GlyR", "format": "cell-based", "details": "for nH (Hill coefficient): Table 1, n = 5; for EC50: Table 1, −60 mV", "method": "as §1, §2"}, "[8]": {"target": "T3, human GlyR α1 subunit P146 (CysL) substituted with Pip (Homo sapiens, UniProt P23415, P174X)", "T3 sequence (P23415 29-457 P174X)": "T1 sequence (P23415 29-457 P174A) with A146X", "test": "TEVC, oocytes, nonsense suppression, P146 Pip", "format": "cell-based", "details": "for EC50: n = 3", "method": "as §3, §4, §5, §6"}, "[9]": {"target": "T4, human GlyR α1 subunit P30A (Homo sapiens, UniProt P23415, P58A)", "T4 construct": "expressed in transfected cells; host or cells: Xenopus laevis oocytes injected with receptor mRNA", "T4 sequence (P23415 29-457 P58A)": "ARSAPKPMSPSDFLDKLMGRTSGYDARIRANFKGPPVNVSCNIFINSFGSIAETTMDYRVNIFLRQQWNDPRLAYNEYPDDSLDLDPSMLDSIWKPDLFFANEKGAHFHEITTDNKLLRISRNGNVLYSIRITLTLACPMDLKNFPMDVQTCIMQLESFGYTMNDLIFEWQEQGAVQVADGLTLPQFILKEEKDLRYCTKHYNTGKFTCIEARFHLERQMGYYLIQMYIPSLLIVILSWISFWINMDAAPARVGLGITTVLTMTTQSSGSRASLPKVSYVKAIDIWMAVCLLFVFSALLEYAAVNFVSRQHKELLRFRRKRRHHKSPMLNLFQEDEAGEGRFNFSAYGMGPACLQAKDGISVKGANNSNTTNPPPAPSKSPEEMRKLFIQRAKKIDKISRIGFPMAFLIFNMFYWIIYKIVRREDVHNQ", "test": "Two-electrode voltage clamp of Xenopus oocytes expressing P30A GlyR", "format": "cell-based", "details": "n = 5", "method": "as §1, §2"}, "[10]": {"details": "Table 2, nonsense suppression, n = 5"}, "[11]": {"details": "Table 2, nonsense suppression, n = 4"}, "[12]": {"details": "n = 5, read-out: pEC50 (converted)"}}, "note": "Residue numbers refer to the chain shown, from its start. Like-named read-outs stand apart in the source and are kept apart here."}
{"smiles": "NCC(=O)O", "note": "[Gly, glycine]", "values": [{"measurement": "nH (Hill coefficient)", "setting": "[1]", "result": "2.4 ± 0.7"}, {"measurement": "nH", "setting": "[2]", "result": "3.0 ± 2.7"}, {"measurement": "EC50", "setting": "[2]; nonsense suppression", "result": 8.9, "unit": "µM"}, {"measurement": "pEC50", "setting": "[2]; nonsense suppression", "result": "5.046 ± 0.05", "unit": "M"}, {"measurement": "nH", "setting": "[3]; Table 2, n = 5", "result": "2.3 ± 0.4"}, {"measurement": "EC50", "setting": "[3]; [10]", "result": 156, "unit": "µM"}, {"measurement": "pEC50", "setting": "[3]; [10]", "result": "3.806 ± 0.05", "unit": "M"}, {"measurement": "nH", "setting": "[4]; Table 2, n = 4", "result": "2.9 ± 0.7"}, {"measurement": "EC50", "setting": "[4]; [11]", "result": 127, "unit": "µM"}, {"measurement": "pEC50", "setting": "[4]; [11]", "result": "3.898 ± 0.03", "unit": "M"}, {"measurement": "nH", "setting": "[5]; Table 2, n = 5", "result": "2.7 ± 1.3"}, {"measurement": "EC50", "setting": "[5]; [10]", "result": 97, "unit": "µM"}, {"measurement": "pEC50", "setting": "[5]; [10]", "result": "4.013 ± 0.05", "unit": "M"}, {"measurement": "nH", "setting": "[6]", "result": "1.6 ± 0.3"}, {"measurement": "EC50", "setting": "[6]; nonsense suppression", "result": 368, "unit": "µM"}, {"measurement": "pEC50", "setting": "[6]; nonsense suppression", "result": "3.434 ± 0.06", "unit": "M"}, {"measurement": "nH (Hill coefficient)", "setting": "[7]", "result": "2.2 ± 0.4"}, {"measurement": "nH", "setting": "[8]; Table 2, n = 5", "result": "1.9 ± 0.7"}, {"measurement": "nH", "setting": "[8]; Table 3, n = 3", "result": "2.7 ± 0.9"}]}
{"smiles": "NCCS(=O)(=O)O", "note": "[Tau, taurine]", "values": [{"measurement": "EC50", "setting": "[9]", "result": 1230, "unit": "µM"}, {"measurement": "ImaxTau/ImaxGly", "setting": "[9]", "result": "60 ± 5", "unit": "%"}, {"measurement": "nH (Hill coefficient)", "setting": "[1]", "result": "1.5 ± 0.3"}, {"measurement": "EC50", "setting": "[1]; n = 5, read-out: EC50", "result": 1410, "unit": "µM"}, {"measurement": "EC50", "setting": "[1]; [12]", "result": 1410, "unit": "µM"}, {"measurement": "% ImaxTau /ImaxGly", "setting": "[1]; n = 5", "result": "39 ± 3", "unit": "%"}, {"measurement": "nH (Hill coefficient)", "setting": "[7]", "result": "2.2 ± 0.4"}, {"measurement": "EC50", "setting": "[7]; n = 5, read-out: EC50", "result": 1190, "unit": "µM"}, {"measurement": "EC50", "setting": "[7]; [12]", "result": 1190, "unit": "µM"}, {"measurement": "% ImaxTau /ImaxGly", "setting": "[7]; n = 5", "result": "20 ± 1", "unit": "%"}, {"measurement": "EC50", "setting": "[8]; EC50, Table 3, nonsense suppression", "result": 757, "unit": "µM"}, {"measurement": "nH", "setting": "[8]; Table 3, n = 3", "result": "1.8 ± 0.3"}, {"measurement": "Emax", "setting": "[8]; Table 3, n = 3, read-out: % ImaxTau /ImaxGly", "result": "64 ± 7", "unit": "%"}, {"measurement": "EC50", "setting": "[8]; pEC50, Table 3, nonsense suppression", "result": 757, "unit": "µM"}]}
